Data set [1] concerns NLRP3-dependent release of IL-1β. The experiment in a line: LPS/ATP-induced IL-1β release from adult microglia. Type of data set: cell-based, mouse. The settings on record: 0.1 and 1 μM. How it is done: Microglia were isolated from C57BL/6 male and female mice aged 6–10 weeks (Charles River, UK) as previously described ([Drinkall et al., 2022]). In brief, brains were isolated, minced, and digested using a Neural Tissue Dissociation Kit (Miltenyi Biotec Ltd., UK) according to manufacturer's instructions. The resulting suspension was dissociated using a Dounce tissue grinder (Sigma). Myelin was removed by centrifuging cell suspension in 33% Percoll (GE Healthcare) for 10 min at 1000 g with low break and aspiration of myelin layer. Cells were pelleted by diluting 1:4 in Ca^2+/Mg^2+ free Hank's balanced salt solution (CMF-HBSS, Gibco) and centrifuged for 10 min at 500 g. […] The eluted microglia were counted and plated onto 96-well Cell + plates (Sarstedt) at a density of 30,000 cells per well in culture medium (DMEM/F12, 10% FBS, 1% PenStrep, 2 mM glutamine, 20 ng/ml IL-34 (R&D Systems), and 50 ng/ml transforming growth factors-β1 (Miltenyi Biotec Ltd., UK)). […]
IL-1β from culture supernatants was measured with DuoSet ELISA kit (R&D Systems) following the manufacturer instructions.

Data set [2] can be described thus: CNS PK study in mice. It counts as in vivo. Conditions: 30 mg/kg single oral, male mice; for Kp: C57BL/6, mouse, 0.25-2 h post dose. How it is done: In CNS PK studies, rodents (C57BL/6 mice or Sprague Dawley rats) were administered C101248 by oral gavage at 10 or 30 mg/kg. At specified timepoints post dose (0.5, 1, 2 or 4 h), blood samples were collected and processed to plasma (centrifugation at 5000 rpm, 4 °C for 10 min). Immediately following blood withdrawal, cerebrospinal fluid (CSF) samples were collected from the cisterna magna, whole body perfusion was conducted, and brain samples were collected and weighed. Samples were stored frozen at −80 ± 10 °C until analysis. Plasma, CSF, and brain samples were analysed using a fit for purpose bioanalytical method (LC-MS/MS) against a calibration curve containing QC samples. Brain:plasma and CSF:plasma were calculated based on brain concentration/plasma concentration at the same timepoint. Unbound partition coefficient (Kpu,u) values were calculated based on unbound brain concentration/unbound plasma concentration at the same timepoint. Unbound concentrations were derived by adjusting plasma concentrations for the fraction unbound in plasma based on in vitro plasma protein binging (PPB) values and brain concentrations for the unbound fraction in brain tissue based on in vitro brain tissue binding (BTB) values.

Like-named read-outs stand apart in the source and are kept apart here.

Consider `Nc1nonc1-c1nc2ccccc2n1Cc1ccncc1` [C101248], for which the “effect on LPS/ATP-induced IL-1β release” value in data set [1] is “significantly attenuated”. Besides, in data set [2] (brain, CSF and plasma (all matrices)), the “time of maximal concentration (Cmax)” value is listed as 1 h. For the same compound, the Kp in data set [2] (CSF / unbound plasma, read-out: CSF:unbound plasma) was 0.8 to 1.2; in data set [2] (brain (unbound) / plasma (unbound), read-out: unbound partition coefficient (Kpu,u)), 0.7 to 1.5.

Values taken from article PMC9841576, “Characterisation of C101248: A novel selective THIK-1 channel inhibitor for the modulation of microglial NLRP3-inflammasome” (Neuropharmacology, 2023).
